Results as given in ChEMBL document CHEMBL1201862, “PubChem BioAssay data set” (2004).
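All cell lines were grown in 96-well plates and treated with compound for 48 hours. GI50: concentration for 50% inhibition of growth.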 Calls of active or inactive are those of the source. Cut-off read from the data, not from the text of the source: active = GI50 up to about 1.1 µM and inactive = higher.

Key:
Assay in all cases: inhibition of tumour cell growth, NCI panel, 48 h
HOP-92 = test system: HOP-92
U-251 = test system: U-251
K562 = test system: K562
HCT-15 = test system: HCT-15
UACC-62 = test system: UACC-62
XF498 = test system: XF498
COLO 205 = test system: COLO 205
NCI-H460 = test system: NCI-H460
RPMI-8226 = test system: RPMI-8226
SK-MEL-28 = test system: SK-MEL-28
NCI-H23 = test system: NCI-H23
CCRF-CEM = test system: CCRF-CEM
SF-539 = test system: SF-539
ACHN = test system: ACHN
SNB-19 = test system: SNB-19
SN12C = test system: SN12C
IGROV-1 = test system: IGROV-1
MOLT-4 = test system: MOLT-4
SNB-78 = test system: SNB-78
RXF 393 = test system: RXF 393
DMS-114 = test system: DMS-114
DMS-273 = test system: DMS-273
HL-60 = test system: HL-60
M19-MEL = test system: M19-MEL
M14 = test system: M14
OVCAR-4 = test system: OVCAR-4
SNB-75 = test system: SNB-75
KM-20L2 = test system: KM-20L2
A498 = test system: A498
LXFL 529 = test system: LXFL 529
RXF 631 = test system: RXF 631
LOX IMVI = test system: LOX IMVI
SK-OV-3 = test system: SK-OV-3
HOP-18 = test system: HOP-18
HOP-62 = test system: HOP-62
UACC-257 = test system: UACC-257
TK-10 = test system: TK-10
SF-295 = test system: SF-295
KM12 = test system: KM12
SF-268 = test system: SF-268
HCT-116 = test system: HCT-116
OVCAR-3 = test system: OVCAR-3
A549 = test system: A549
Malme-3M = test system: Malme-3M
NCI-H522 = test system: NCI-H522
NCI-H226 = test system: NCI-H226
DLD-1 = test system: DLD-1
SW-620 = test system: SW-620
SK-MEL-2 = test system: SK-MEL-2
SK-MEL-5 = test system: SK-MEL-5
OVCAR-8 = test system: OVCAR-8
HCC 2998 = test system: HCC 2998
OVCAR-5 = test system: OVCAR-5
UO-31 = test system: UO-31
HT-29 = test system: HT-29
786-0 = test system: 786-0
SR = test system: SR
CAKI-1 = test system: CAKI-1

For `C/C(Cc1ccccc1)=N\NC(N)=S`, the GI50 (HOP-92) was 67.1 µM (inactive), the GI50 (U-251) was > 100 µM (inactive) and the GI50 (K562) was > 100 µM (inactive). The GI50 (HCT-15) was > 100 µM, the GI50 (UACC-62) was > 100 µM (inactive) and the GI50 (XF498) was > 100 µM (inactive). The GI50 (COLO 205) was > 100 µM (inactive), the GI50 (NCI-H460) was > 100 µM (inactive) and the GI50 (RPMI-8226) was 92.9 µM (inactive). For the same compound, the GI50 (SK-MEL-28) was > 100 µM (inactive), the GI50 (NCI-H23) was > 100 µM (inactive) and the GI50 (CCRF-CEM) was > 100 µM (inactive). The GI50 (SF-539) was > 100 µM (inactive), the GI50 (ACHN) was > 100 µM (inactive) and the GI50 (SNB-19) was > 100 µM (inactive). The GI50 (SN12C) was > 100 µM (inactive), the GI50 (IGROV-1) was > 100 µM (inactive) and the GI50 (MOLT-4) was > 100 µM (inactive). For the same compound, the GI50 (SNB-78) was > 100 µM (inactive), the GI50 (RXF 393) was 70.1 µM (inactive) and the GI50 (DMS-114) was 76 µM (inactive). The GI50 (DMS-273) was > 100 µM (inactive), the GI50 (HL-60) was > 100 µM (inactive) and the GI50 (M19-MEL) was > 100 µM (inactive). The GI50 (M14) was > 100 µM (inactive), the GI50 (OVCAR-4) was > 100 µM (inactive) and the GI50 (SNB-75) was > 100 µM (inactive). The GI50 (KM-20L2) was > 100 µM (inactive), the GI50 (A498) was > 100 µM (inactive) and the GI50 (LXFL 529) was > 100 µM (inactive). The GI50 (RXF 631) was > 100 µM (inactive), the GI50 (LOX IMVI) was > 100 µM (inactive) and the GI50 (SK-OV-3) was > 100 µM (inactive). The GI50 (HOP-18) was > 100 µM (inactive).
For `C[C@]12CCC(=O)C[C@H]1CCC(O)[C@@H]2Br` (stereo not given in full), the GI50 (HOP-92) was > 100 µM (inactive), the GI50 (HOP-62) was > 100 µM (inactive) and the GI50 (UACC-257) was > 100 µM (inactive). For the same compound, the GI50 (TK-10) was > 100 µM (inactive), the GI50 (SF-295) was > 100 µM (inactive) and the GI50 (U-251) was > 100 µM (inactive). The GI50 (K562) was > 100 µM (inactive), the GI50 (HCT-15) was > 100 µM and the GI50 (UACC-62) was > 100 µM (inactive). For the same compound, the GI50 (XF498) was > 100 µM (inactive), the GI50 (KM12) was > 100 µM (inactive) and the GI50 (COLO 205) was > 100 µM (inactive). For the same compound, the GI50 (SF-268) was > 100 µM (inactive), the GI50 (NCI-H460) was > 100 µM (inactive) and the GI50 (RPMI-8226) was > 100 µM (inactive). For the same compound, the GI50 (SK-MEL-28) was > 100 µM (inactive), the GI50 (HCT-116) was > 100 µM (inactive) and the GI50 (NCI-H23) was > 100 µM (inactive). The GI50 (CCRF-CEM) was > 100 µM (inactive), the GI50 (SF-539) was > 100 µM (inactive) and the GI50 (ACHN) was > 100 µM (inactive). For the same compound, the GI50 (SNB-19) was > 100 µM (inactive), the GI50 (SN12C) was > 100 µM (inactive) and the GI50 (IGROV-1) was > 100 µM (inactive). The GI50 (OVCAR-3) was > 100 µM (inactive), the GI50 (MOLT-4) was > 100 µM (inactive) and the GI50 (A549) was > 100 µM (inactive). For the same compound, the GI50 (Malme-3M) was > 100 µM (inactive), the GI50 (NCI-H522) was > 100 µM (inactive) and the GI50 (NCI-H226) was > 100 µM (inactive). The GI50 (DLD-1) was > 100 µM (inactive), the GI50 (DMS-114) was > 100 µM (inactive) and the GI50 (DMS-273) was > 100 µM (inactive). For the same compound, the GI50 (SW-620) was > 100 µM (inactive), the GI50 (SK-MEL-2) was > 100 µM (inactive) and the GI50 (HL-60) was > 100 µM (inactive). For the same compound, the GI50 (SK-MEL-5) was > 100 µM (inactive), the GI50 (M19-MEL) was > 100 µM (inactive) and the GI50 (M14) was > 100 µM (inactive). The GI50 (OVCAR-4) was > 100 µM (inactive), the GI50 (OVCAR-8) was > 100 µM (inactive) and the GI50 (HCC 2998) was > 100 µM (inactive). For the same compound, the GI50 (SNB-75) was > 100 µM (inactive), the GI50 (OVCAR-5) was > 100 µM (inactive) and the GI50 (KM-20L2) was > 100 µM (inactive). For the same compound, the GI50 (A498) was > 100 µM (inactive), the GI50 (UO-31) was > 100 µM (inactive) and the GI50 (LXFL 529) was > 100 µM (inactive). The GI50 (RXF 631) was > 100 µM (inactive), the GI50 (HT-29) was > 100 µM (inactive) and the GI50 (786-0) was > 100 µM (inactive). For the same compound, the GI50 (SR) was > 100 µM (inactive), the GI50 (LOX IMVI) was > 100 µM (inactive) and the GI50 (SK-OV-3) was > 100 µM (inactive). For the same compound, the GI50 (HOP-18) was > 100 µM (inactive) and the GI50 (CAKI-1) was > 100 µM (inactive).
